#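 Compound exposure: 48 hours, 5 concentrations, 96-well plates. The concentration for 50% growth inhibition is given as GI50.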 Activity calls are given as the source filed them. Rule as the data show it: active = GI50 up to about 1.1 µM and inactive = higher.
# Experiments:
# Assay in all cases: NCI-60 cell line screen, 48 h
# CCRF-CEM = test system: CCRF-CEM
# HCT-116 = test system: HCT-116
# HCT-15 = test system: HCT-15
# HOP-92 = test system: HOP-92
# M14 = test system: M14
# MDA-MB-231 = test system: MDA-MB-231
# MDA-MB-435 = test system: MDA-MB-435
# MOLT-4 = test system: MOLT-4
# NCI-H226 = test system: NCI-H226
# NCI/ADR-RES = test system: NCI/ADR-RES
# OVCAR-3 = test system: OVCAR-3
# OVCAR-8 = test system: OVCAR-8
# PC-3 = test system: PC-3
# RXF 393 = test system: RXF 393
# SK-MEL-28 = test system: SK-MEL-28
# SNB-75 = test system: SNB-75
# UACC-62 = test system: UACC-62
# UO-31 = test system: UO-31
# ACHN = test system: ACHN
# TK-10 = test system: TK-10
Compound,GI50 (CCRF-CEM),GI50 (HCT-116),GI50 (HCT-15),GI50 (HOP-92),GI50 (M14),GI50 (MDA-MB-231),GI50 (MDA-MB-435),GI50 (MOLT-4),GI50 (NCI-H226),GI50 (NCI/ADR-RES),GI50 (OVCAR-3),GI50 (OVCAR-8),GI50 (PC-3),GI50 (RXF 393),GI50 (SK-MEL-28),GI50 (SNB-75),GI50 (UACC-62),GI50 (UO-31),GI50 (ACHN),GI50 (TK-10)
CCOC(=O)c1cc2c([nH]1)c(OC(C)=O)cc1c2ccn1Cc1ccccc1,> 100 µM (inactive),> 100 µM (inactive),> 100 µM,> 100 µM (inactive),> 100 µM (inactive),> 100 µM (inactive),> 100 µM (inactive),> 100 µM (inactive),> 100 µM (inactive),> 100 µM (inactive),> 100 µM (inactive),> 100 µM (inactive),> 100 µM (inactive),> 100 µM (inactive),> 100 µM (inactive),> 100 µM (inactive),> 100 µM (inactive),> 100 µM (inactive),,
O=C1CC(NC(=O)C(F)(F)F)c2c1csc2Br (stereo not given),33.6 µM (inactive),32.8 µM (inactive),88.5 µM,35 µM (inactive),88.3 µM (inactive),> 100 µM (inactive),56.5 µM (inactive),31.5 µM (inactive),> 100 µM (inactive),> 100 µM (inactive),2.45 µM (inactive),> 100 µM (inactive),> 100 µM (inactive),2.87 µM (inactive),> 100 µM (inactive),,> 100 µM (inactive),45.5 µM (inactive),> 100 µM (inactive),4.91 µM (inactive)
C=C1C[C@@H](O)[C@@H](Br)C(C)(C)[C@@]12C=CC(=O)CC2,> 100 µM (inactive),> 86.5 µM (inactive),> 100 µM,> 100 µM (inactive),> 100 µM (inactive),> 100 µM (inactive),> 100 µM (inactive),> 100 µM (inactive),,> 100 µM (inactive),> 100 µM (inactive),> 100 µM (inactive),1.5 µM (inactive),> 100 µM (inactive),> 100 µM (inactive),> 63.2 µM (inactive),> 100 µM (inactive),> 96.4 µM (inactive),> 100 µM (inactive),12.6 µM (inactive)
CCCCCCCCCCCCCCCCCCN(C)C(COC)COP(=O)([O-])OCC[N+](C)(C)C (stereo not given),2.18 µM (inactive),4.68 µM (inactive),,1.89 µM (inactive),3.46 µM (inactive),5.73 µM (inactive),15.6 µM (inactive),1.82 µM (inactive),3.58 µM (inactive),24.5 µM (inactive),7.24 µM (inactive),11.8 µM (inactive),1.53 µM (inactive),1.57 µM (inactive),18.5 µM (inactive),2.97 µM (inactive),5.16 µM (inactive),16 µM (inactive),11.9 µM (inactive),1.84 µM (inactive)
O=C1/C(=C/c2cccnc2)SC(=S)N1Cc1ccco1,3.21 µM (inactive),3.06 µM (inactive),3.72 µM,5.32 µM (inactive),5.6 µM (inactive),7.08 µM (inactive),2.15 µM (inactive),3.08 µM (inactive),24.4 µM (inactive),20.1 µM (inactive),3.31 µM (inactive),4.7 µM (inactive),3.87 µM (inactive),3.44 µM (inactive),31 µM (inactive),,8.97 µM (inactive),2.84 µM (inactive),10.7 µM (inactive),2.34 µM (inactive)
O=c1c(-c2c(-c3ccccc3)oc3ccc(Cl)cc3c2=O)c(-c2ccccc2)oc2ccc(Cl)cc12,> 100 µM (inactive),> 78.3 µM (inactive),> 100 µM,> 59.7 µM (inactive),> 100 µM (inactive),> 40.3 µM (inactive),> 100 µM (inactive),> 100 µM (inactive),> 100 µM (inactive),> 100 µM (inactive),> 100 µM (inactive),> 74.1 µM (inactive),> 100 µM (inactive),> 100 µM (inactive),> 100 µM (inactive),> 44.1 µM (inactive),> 82.8 µM (inactive),,> 75.9 µM (inactive),> 100 µM (inactive)
N=C/N=C/C(=S)O[C@@H]1C(=O)N2CCC[C@@]23CCCC[C@@H]13,> 12.5 µM (inactive),> 12.5 µM (inactive),> 12.5 µM,,> 12.5 µM (inactive),> 12.5 µM (inactive),> 12.5 µM (inactive),,> 12.5 µM (inactive),> 12.5 µM (inactive),,> 12.5 µM (inactive),> 12.5 µM (inactive),> 12.5 µM (inactive),> 12.5 µM (inactive),> 12.5 µM (inactive),> 12.5 µM (inactive),> 12.5 µM (inactive),> 12.5 µM (inactive),> 12.5 µM (inactive)
CC(C)(C)OC(=O)N1CCc2[nH][nH]c(=O)c2C1,> 100 µM (inactive),> 100 µM (inactive),> 100 µM,> 100 µM (inactive),> 100 µM (inactive),> 100 µM (inactive),> 100 µM (inactive),> 100 µM (inactive),> 100 µM (inactive),> 100 µM (inactive),> 100 µM (inactive),> 100 µM (inactive),> 100 µM (inactive),> 100 µM (inactive),> 100 µM (inactive),,> 100 µM (inactive),> 100 µM (inactive),,> 100 µM (inactive)
COC(=O)c1cc(NC(=O)Cc2c[nH]c3ccccc23)cn1C,45.3 µM (inactive),71.4 µM (inactive),62.5 µM,,> 100 µM (inactive),27.4 µM (inactive),55.8 µM (inactive),43.2 µM (inactive),21.7 µM (inactive),> 100 µM (inactive),> 100 µM (inactive),66.5 µM (inactive),44.6 µM (inactive),> 100 µM (inactive),42 µM (inactive),,8.69 µM (inactive),23.6 µM (inactive),72.4 µM (inactive),87.9 µM (inactive)
CCCC[C@H]1CCN2C[C@@H](O)[C@@H](O)[C@H]2[C@@H]1O,> 100 µM (inactive),> 100 µM (inactive),> 100 µM,> 100 µM (inactive),> 100 µM (inactive),> 100 µM (inactive),> 100 µM (inactive),> 100 µM (inactive),> 100 µM (inactive),> 100 µM (inactive),> 100 µM (inactive),> 100 µM (inactive),> 100 µM (inactive),,> 100 µM (inactive),> 100 µM (inactive),> 100 µM (inactive),> 100 µM (inactive),> 100 µM (inactive),> 100 µM (inactive)
Cc1cn(C2CC(COCc3ccccc3)N(CCO[Si](C)(C)C(C)(C)C)O2)c(=O)[nH]c1=O (stereo not given),,16.8 µM (inactive),,8.81 µM (inactive),15 µM (inactive),18.7 µM (inactive),13 µM (inactive),5.93 µM (inactive),,14.3 µM (inactive),15 µM (inactive),15.5 µM (inactive),5.28 µM (inactive),15.5 µM (inactive),16.8 µM (inactive),,11.9 µM (inactive),13.8 µM (inactive),14.9 µM (inactive),14.3 µM (inactive)
Cc1ccc(S(=O)(=O)N2C[C@](O)(c3ccccc3)[C@H]2C)cc1,26.4 µM (inactive),> 100 µM (inactive),> 100 µM,> 100 µM (inactive),> 100 µM (inactive),> 100 µM (inactive),> 100 µM (inactive),44.2 µM (inactive),> 100 µM (inactive),> 100 µM (inactive),,> 100 µM (inactive),> 100 µM (inactive),> 100 µM (inactive),> 100 µM (inactive),89.3 µM (inactive),> 100 µM (inactive),> 100 µM (inactive),> 100 µM (inactive),> 100 µM (inactive)
S=c1[nH]c2c(Cl)c(Cl)c(Cl)c(Cl)c2[nH]1,1.16 µM (inactive),21.1 µM (inactive),22 µM,19.5 µM (inactive),21.4 µM (inactive),17.8 µM (inactive),17.5 µM (inactive),4.8 µM (inactive),,18.5 µM (inactive),26.7 µM (inactive),23.2 µM (inactive),22.2 µM (inactive),18.1 µM (inactive),,,15.2 µM (inactive),16 µM (inactive),15.8 µM (inactive),22 µM (inactive)
CC(=O)OCC1OC(n2c(=O)[nH]c(=O)c3sccc32)C(Br)C1OC(C)=O (stereo not given),> 100 µM (inactive),> 100 µM (inactive),> 100 µM,> 100 µM (inactive),> 100 µM (inactive),> 100 µM (inactive),> 100 µM (inactive),> 100 µM (inactive),> 100 µM (inactive),> 100 µM (inactive),> 100 µM (inactive),> 100 µM (inactive),> 100 µM (inactive),> 100 µM (inactive),> 100 µM (inactive),> 100 µM (inactive),,> 100 µM (inactive),> 100 µM (inactive),> 100 µM (inactive)
CC1=CC(=O)N(n2c(-c3ccccc3)n[nH]c2=O)C1=O,43.9 µM (inactive),> 100 µM (inactive),> 100 µM,,> 100 µM (inactive),> 100 µM (inactive),> 100 µM (inactive),> 100 µM (inactive),> 100 µM (inactive),> 100 µM (inactive),> 100 µM (inactive),> 100 µM (inactive),> 100 µM (inactive),> 100 µM (inactive),> 100 µM (inactive),> 100 µM (inactive),> 100 µM (inactive),> 100 µM (inactive),> 100 µM (inactive),> 100 µM (inactive)
